What all share (test): relative viability (nuclei count vs DMSO), 5 days (fraction); higher = more cells survive
Compound in the assay “AGI-6780 + Decitabine”: O=C(Nc1cccc(C(F)(F)F)c1)Nc1cc(S(=O)(=O)NC2CC2)ccc1-c1ccsc1 [AGI-6780] + Nc1ncn([C@H]2C[C@H](O)[C@@H](CO)O2)c(=O)n1 [Decitabine] (partner 2 µM)
In outline: (§1)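 One day after seeding in 1536-well plates, lung cancer cell lines were dosed by pin tool. Dosing was either single-drug or a fixed anchor-drug dose plus five library-drug doses (not always all listed) in √10 steps. After 5 days, nuclei were stained in one fix-and-stain step and counted on 4× images, and relative viability is the nuclei count of treated wells over that of vehicle wells, given as the median of duplicate plates.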

Compound in the assay “AGI-6780 + Dasatinib”: O=C(Nc1cccc(C(F)(F)F)c1)Nc1cc(S(=O)(=O)NC2CC2)ccc1-c1ccsc1 [AGI-6780] + Cc1nc(Nc2ncc(C(=O)Nc3c(C)cccc3Cl)s2)cc(N2CCN(CCO)CC2)n1 [Dasatinib] (partner 0.075 µM)
In short, it runs like this: as §1

Compound in the assay “AGI-6780 + Luminespib”: O=C(Nc1cccc(C(F)(F)F)c1)Nc1cc(S(=O)(=O)NC2CC2)ccc1-c1ccsc1 [AGI-6780] + CCNC(=O)c1noc(-c2cc(C(C)C)c(O)cc2O)c1-c1ccc(CN2CCOCC2)cc1 [Luminespib] (partner 0.01 µM)
In outline: as §1

Compound in the assay “AGI-6780 + Foretinib”: O=C(Nc1cccc(C(F)(F)F)c1)Nc1cc(S(=O)(=O)NC2CC2)ccc1-c1ccsc1 [AGI-6780] + COc1cc2c(Oc3ccc(NC(=O)C4(C(=O)Nc5ccc(F)cc5)CC4)cc3F)ccnc2cc1OCCCN1CCOCC1 [Foretinib] (partner 0.25 µM)
In short, it runs like this:
as §1

PC-3 [JPC-3]: the relative viability is 0.797 with AGI-6780 + Decitabine (first compound 0.253 µM); 0.868 with AGI-6780 + Decitabine (first compound 0.8 µM); 0.802 in the assay with AGI-6780 + Decitabine (first compound 2.53 µM); 0.775 with AGI-6780 + Decitabine (first compound 8 µM); 0.992 in the assay with AGI-6780 + Dasatinib (first compound 0.08 µM); 0.974 in the assay with AGI-6780 + Dasatinib (first compound 0.253 µM). In addition, the relative viability with AGI-6780 + Dasatinib (first compound 0.8 µM) was found to be 0.944; in the assay with AGI-6780 + Dasatinib (first compound 2.53 µM) it was 0.922; in the assay with AGI-6780 + Dasatinib (first compound 8 µM), 0.923; with AGI-6780 + Luminespib (first compound 0.08 µM), 0.59; in the assay with AGI-6780 + Luminespib (first compound 0.253 µM) it was 0.71; with AGI-6780 + Luminespib (first compound 0.8 µM), 0.727. Further, the relative viability with AGI-6780 + Luminespib (first compound 2.53 µM) turned out to be 0.629; in the assay with AGI-6780 + Luminespib (first compound 8 µM) it was 0.67; with AGI-6780 + Foretinib (first compound 0.08 µM) it was 1.08; with AGI-6780 + Foretinib (first compound 0.253 µM), 0.986; with AGI-6780 + Foretinib (first compound 0.8 µM), 0.969; with AGI-6780 + Foretinib (first compound 2.53 µM), 1.05. Further, the relative viability with AGI-6780 + Foretinib (first compound 8 µM) was determined as 1.01.
As for PC-14, the relative viability was 0.22 with AGI-6780 + Decitabine (first compound 0.08 µM); 0.226 in the assay with AGI-6780 + Decitabine (first compound 0.253 µM); 0.295 with AGI-6780 + Decitabine (first compound 0.8 µM); 0.217 in the assay with AGI-6780 + Decitabine (first compound 2.53 µM); 0.198 with AGI-6780 + Decitabine (first compound 8 µM); 0.233 with AGI-6780 + Dasatinib (first compound 0.08 µM). Also, the relative viability with AGI-6780 + Dasatinib (first compound 0.253 µM) was found to be 0.256; with AGI-6780 + Dasatinib (first compound 0.8 µM) it was 0.308; with AGI-6780 + Dasatinib (first compound 2.53 µM), 0.276; in the assay with AGI-6780 + Dasatinib (first compound 8 µM), 0.24; with AGI-6780 + Luminespib (first compound 0.08 µM), 0.228; in the assay with AGI-6780 + Luminespib (first compound 0.253 µM), 0.195. Also, the relative viability with AGI-6780 + Luminespib (first compound 0.8 µM) was found to be 0.171; with AGI-6780 + Luminespib (first compound 2.53 µM) it was 0.118; with AGI-6780 + Luminespib (first compound 8 µM) it was 0.121; with AGI-6780 + Foretinib (first compound 0.08 µM), 0.902; with AGI-6780 + Foretinib (first compound 0.253 µM), 1.1; with AGI-6780 + Foretinib (first compound 0.8 µM), 1.02. The relative viability with AGI-6780 + Foretinib (first compound 2.53 µM) came to 0.941; in the assay with AGI-6780 + Foretinib (first compound 8 µM), 0.979.
As to RERF-LC-KJ, the relative viability is 0.634 in the assay with AGI-6780 + Decitabine (first compound 0.08 µM); 0.698 in the assay with AGI-6780 + Decitabine (first compound 0.253 µM); 0.829 in the assay with AGI-6780 + Decitabine (first compound 0.8 µM); 0.644 with AGI-6780 + Decitabine (first compound 2.53 µM); 0.611 in the assay with AGI-6780 + Decitabine (first compound 8 µM); 0.895 with AGI-6780 + Dasatinib (first compound 0.08 µM). Also, the relative viability in the assay with AGI-6780 + Dasatinib (first compound 0.253 µM) stood at 0.93; with AGI-6780 + Dasatinib (first compound 0.8 µM), 0.822; with AGI-6780 + Dasatinib (first compound 2.53 µM) it was 0.511; with AGI-6780 + Dasatinib (first compound 8 µM) it was 0.667; with AGI-6780 + Luminespib (first compound 0.08 µM), 1.25; with AGI-6780 + Luminespib (first compound 0.253 µM) it was 1.17. The relative viability stood at 1.33 with AGI-6780 + Luminespib (first compound 0.8 µM); 1.16 with AGI-6780 + Luminespib (first compound 2.53 µM); 1.17 in the assay with AGI-6780 + Luminespib (first compound 8 µM); 0.871 in the assay with AGI-6780 + Foretinib (first compound 0.08 µM); 0.904 in the assay with AGI-6780 + Foretinib (first compound 0.253 µM); 0.88 with AGI-6780 + Foretinib (first compound 0.8 µM). Also, the relative viability with AGI-6780 + Foretinib (first compound 2.53 µM) came to 0.597; with AGI-6780 + Foretinib (first compound 8 µM), 0.909.
SK-LU-1: the relative viability with AGI-6780 + Decitabine (first compound 0.08 µM) came out at 0.73; with AGI-6780 + Decitabine (first compound 0.253 µM), 0.63; with AGI-6780 + Decitabine (first compound 0.8 µM), 0.567; with AGI-6780 + Decitabine (first compound 2.53 µM) it was 0.583; with AGI-6780 + Decitabine (first compound 8 µM), 0.572; with AGI-6780 + Dasatinib (first compound 0.08 µM), 0.172. Besides, the relative viability is 0.183 with AGI-6780 + Dasatinib (first compound 0.253 µM); 0.135 with AGI-6780 + Dasatinib (first compound 2.53 µM); 0.17 with AGI-6780 + Dasatinib (first compound 8 µM); 0.22 in the assay with AGI-6780 + Luminespib (first compound 0.08 µM); 0.192 with AGI-6780 + Luminespib (first compound 0.253 µM); 0.199 with AGI-6780 + Luminespib (first compound 2.53 µM). The relative viability with AGI-6780 + Luminespib (first compound 8 µM) turned out to be 0.224; with AGI-6780 + Foretinib (first compound 0.08 µM) it was 0.873; with AGI-6780 + Foretinib (first compound 0.253 µM), 0.859; in the assay with AGI-6780 + Foretinib (first compound 2.53 µM), 0.737; with AGI-6780 + Foretinib (first compound 8 µM), 0.831.
For the cell line SK-MES-1, the relative viability with AGI-6780 + Decitabine (first compound 0.08 µM) is 0.364; with AGI-6780 + Decitabine (first compound 0.253 µM), 0.382; with AGI-6780 + Decitabine (first compound 0.8 µM) it was 0.462; in the assay with AGI-6780 + Decitabine (first compound 2.53 µM) it was 0.294; with AGI-6780 + Decitabine (first compound 8 µM) it was 0.377; in the assay with AGI-6780 + Dasatinib (first compound 0.08 µM), 0.379. For the same cell line, the relative viability was found to be 0.428 with AGI-6780 + Dasatinib (first compound 0.253 µM); 0.367 with AGI-6780 + Dasatinib (first compound 0.8 µM); 0.24 with AGI-6780 + Dasatinib (first compound 2.53 µM); 0.338 with AGI-6780 + Dasatinib (first compound 8 µM); 0.716 with AGI-6780 + Luminespib (first compound 0.08 µM); 0.714 with AGI-6780 + Luminespib (first compound 0.253 µM). Besides, the relative viability with AGI-6780 + Luminespib (first compound 0.8 µM) came to 0.798; with AGI-6780 + Luminespib (first compound 2.53 µM), 0.677; with AGI-6780 + Luminespib (first compound 8 µM), 0.801; with AGI-6780 + Foretinib (first compound 0.08 µM), 0.896; with AGI-6780 + Foretinib (first compound 0.253 µM), 1.01; with AGI-6780 + Foretinib (first compound 0.8 µM), 0.773. For the same cell line, the relative viability with AGI-6780 + Foretinib (first compound 2.53 µM) is 0.709; in the assay with AGI-6780 + Foretinib (first compound 8 µM), 0.833.
SW 1573: the relative viability came to 0.6 with AGI-6780 + Decitabine (first compound 0.08 µM); 0.449 with AGI-6780 + Decitabine (first compound 0.253 µM); 0.65 in the assay with AGI-6780 + Decitabine (first compound 0.8 µM); 0.417 in the assay with AGI-6780 + Decitabine (first compound 2.53 µM); 0.493 with AGI-6780 + Decitabine (first compound 8 µM); 0.467 in the assay with AGI-6780 + Dasatinib (first compound 0.08 µM). The relative viability with AGI-6780 + Dasatinib (first compound 0.253 µM) was determined as 0.516; in the assay with AGI-6780 + Dasatinib (first compound 0.8 µM), 0.442; with AGI-6780 + Dasatinib (first compound 8 µM) it was 0.531; in the assay with AGI-6780 + Luminespib (first compound 0.08 µM) it was 0.462; with AGI-6780 + Luminespib (first compound 0.253 µM), 0.398; with AGI-6780 + Luminespib (first compound 0.8 µM) it was 0.216. In addition, the relative viability with AGI-6780 + Luminespib (first compound 2.53 µM) was 0.216; in the assay with AGI-6780 + Luminespib (first compound 8 µM) it was 0.287; with AGI-6780 + Foretinib (first compound 0.08 µM) it was 0.881; with AGI-6780 + Foretinib (first compound 0.253 µM) it was 1.01; in the assay with AGI-6780 + Foretinib (first compound 0.8 µM) it was 0.93; in the assay with AGI-6780 + Foretinib (first compound 2.53 µM), 0.836. Moreover, in the assay with AGI-6780 + Foretinib (first compound 8 µM), the relative viability stood at 0.903.
UMC-11: the relative viability with AGI-6780 + Decitabine (first compound 0.08 µM) was 0.394; with AGI-6780 + Decitabine (first compound 0.253 µM) it was 0.335; with AGI-6780 + Decitabine (first compound 0.8 µM) it was 0.7; with AGI-6780 + Decitabine (first compound 8 µM) it was 0.678; with AGI-6780 + Dasatinib (first compound 0.08 µM) it was 0.474; with AGI-6780 + Dasatinib (first compound 0.253 µM) it was 0.524. In addition, the relative viability with AGI-6780 + Dasatinib (first compound 0.8 µM) turned out to be 0.662; with AGI-6780 + Dasatinib (first compound 8 µM), 0.488; with AGI-6780 + Luminespib (first compound 0.08 µM) it was 1.16; in the assay with AGI-6780 + Luminespib (first compound 0.253 µM), 1; with AGI-6780 + Luminespib (first compound 0.8 µM), 1.22; in the assay with AGI-6780 + Luminespib (first compound 8 µM), 1.11. Further, the relative viability with AGI-6780 + Foretinib (first compound 0.08 µM) worked out at 1.03; with AGI-6780 + Foretinib (first compound 0.253 µM) it was 1.03; in the assay with AGI-6780 + Foretinib (first compound 0.8 µM), 1.23; in the assay with AGI-6780 + Foretinib (first compound 8 µM), 1.19.

The values are drawn from the supplement of paper PMC10307832.
